Patent US20080194585A1, “Fungicidal Pyrazine Derivatives” (priority 2005, published 2008)
Where two headings read alike, the source gives them in different places. Marks after values point to notes of the source that are not given here.

What was measured:
Plasmopara viticola = test: Test D: grape downy mildew, spray after inoculation of grape seedlings; assay type: in vivo; settings: for pest or weed control at 200 ppm / pest or weed control at 40 ppm: Plasmopara viticola, 168 h, read-out: Test D disease control rating
Text: Upon removal, disease ratings were made. […] A dash (-) indicates no test results.

Phytophthora infestans = test: whole plant or invertebrate; assay type: in vivo; settings: for pest or weed control at 200 ppm / pest or weed control at 40 ppm: Phytophthora infestans, in Solanum lycopersicum, topical, 144 h, read-out: Test F disease control rating; for Test F disease control rating: 200 ppm
Septoria tritici = test: Test J: wheat leaf blotch, preventive spray on wheat seedlings; assay type: in vivo; settings: for pest or weed control at 200 ppm / pest or weed control at 40 ppm: Zymoseptoria tritici, 528 h, read-out: Test J disease control rating
Text: A dash (-) indicates no test results.

fusarium graminearium = test: Test I: wheat head scab, preventive spray on wheat seedlings; settings: for pest or weed control at 200 ppm / pest or weed control at 40 ppm: Fusarium, in Triticum aestivum, topical, 192 h; for pest or weed control at 200 ppm: read-out: Test I disease control rating, 200 ppm; for Test I disease control rating: 200 ppm
Experimental: (the causal agent of wheat head scab) and incubated in a saturated atmosphere at 20° C. for 72 h, and then moved to a growth chamber at 22° C. for 5 days, after which disease ratings were made.

[1] = test system: Puccinia recondita f. sp. tritici; test: Test K: wheat leaf rust, preventive spray on wheat seedlings; settings: for pest or weed control at 200 ppm / pest or weed control at 40 ppm: Puccinia recondita, in Triticum aestivum, 192 h, read-out: Test K disease control rating
Botrytis cinerea = test: Test E: tomato botrytis, preventive spray on tomato seedlings; settings: for pest or weed control at 200 ppm / pest or weed control at 40 ppm: Botrytis cinerea, in Solanum lycopersicum, topical, 72 h, read-out: Test E disease control rating
Septoria nodorum = test: Test H: wheat glum blotch, preventive spray on wheat seedlings; settings: for pest or weed control at 200 ppm / pest or weed control at 40 ppm: Parastagonospora nodorum, in Triticum aestivum, topical, 168 h; for pest or weed control at 200 ppm: read-out: Test H disease control rating, 200 ppm
Experimental: (the causal agent of wheat glum blotch) and incubated in a saturated atmosphere at 20° C. for 48 h, and then moved to a growth chamber at 22° C. for 5 days, after which disease ratings were made.

[2] = test system: Erysiphe graminis f. sp. tritici; test: Test L: wheat powdery mildew, preventive spray on wheat seedlings; settings: for pest or weed control at 200 ppm / pest or weed control at 40 ppm: Blumeria graminis, in Triticum aestivum, 168 h; for pest or weed control at 200 ppm: read-out: Test L disease control rating, 200 ppm
Pythium aphanidermatum = test: Test A: bluegrass pythium blight, preventive spray on bluegrass seedlings; settings: for pest or weed control at 200 ppm / pest or weed control at 40 ppm: Pythium aphanidermatum, 120 h, read-out: Test A disease control rating; for Test A disease control rating: 200 ppm
Rhizoctonia oryzae = test: Test G: turf brown patch, preventive spray on creeping bent grass seedlings; settings: for pest or weed control at 200 ppm / pest or weed control at 40 ppm: Waitea circinata, in Agrostis stolonifera, topical, 144 h; for pest or weed control at 200 ppm: read-out: Test G disease control rating, 200 ppm
Experimental: (the causal agent of turf brown patch) and incubated in a saturated atmosphere at 27° C. for 24 h, and then moved to a growth chamber at 27° C. for 5 days, after which disease ratings were made.

[3] = test system: Colletotrichum orbiculare; test: Test B: cucumber Colletotrichum anthracnose, preventive spray on cucumber seedlings; settings: for pest or weed control at 200 ppm / pest or weed control at 40 ppm: Colletotrichum orbiculare, in Cucumis sativus, 144 h; for pest or weed control at 200 ppm: read-out: Test B disease control rating, 200 ppm; for Test B disease control rating: 40 ppm (marked *)
[4] = read-out: Test I disease control rating, 40 ppm (*)
[5] = read-out: Test H disease control rating, 40 ppm (*)
[6] = read-out: Test L disease control rating, 40 ppm (*)
[7] = read-out: Test G disease control rating, 40 ppm (*)
[8] = read-out: Test B disease control rating, 40 ppm (*)
[9] = 100 = 100% disease control, 0 = no control
[10] = 40 ppm (marked *), 100 = 100% disease control, 0 = no control
[11] = 100 = 100% disease control, 0 = no control relative to controls

## CC(C)Cn1c(-c2c(F)cccc2F)c(Br)nc(-n2cccn2)c1=O [Compound 99, 5-Bromo-6-(2,6-difluorophenyl)-1-(2-methylpropyl)-3-(1H-pyrazol-1-yl)-2(1H)-pyrazinone]
Plasmopara viticola; 200 ppm
  pest or weed control at 200 ppm: 0%
Phytophthora infestans
  pest or weed control at 200 ppm: 0%
Septoria tritici
  pest or weed control at 200 ppm: 100%
Fusarium graminearium
  pest or weed control at 200 ppm: 0%
[1]
  pest or weed control at 200 ppm: 100%
Botrytis cinerea
  pest or weed control at 200 ppm: 100%
Septoria nodorum
  pest or weed control at 200 ppm: 100%
[2]
  pest or weed control at 200 ppm: 100%
Pythium aphanidermatum
  pest or weed control at 200 ppm: 0%
Rhizoctonia oryzae
  pest or weed control at 200 ppm: 82%
[3]
  pest or weed control at 200 ppm: 99%

## O=c1c(-n2cccn2)nc(Cl)c(-c2c(F)cccc2F)n1-c1ccccc1 [Compound 161, 5-Chloro-6-(2,6-difluorophenyl)-1-phenyl-3-(1H-pyrazol-1-yl)-2(1H)-pyrazinone]
Plasmopara viticola; 40 ppm (*)
  pest or weed control at 40 ppm: 0%
Phytophthora infestans
  pest or weed control at 40 ppm: 0%
Septoria tritici; 40 ppm (*)
  pest or weed control at 40 ppm: 97%
Fusarium graminearium; [4]
  pest or weed control at 40 ppm: 69%
[1]
  pest or weed control at 40 ppm: 100%
Botrytis cinerea
  pest or weed control at 40 ppm: 100%
Septoria nodorum; [5]
  pest or weed control at 40 ppm: 100%
[2]; [6]
  pest or weed control at 40 ppm: 90%
Pythium aphanidermatum
  pest or weed control at 40 ppm: 0%
Rhizoctonia oryzae; [7]
  pest or weed control at 40 ppm: 68%
[3]; [8]
  pest or weed control at 40 ppm: 77%

## CCC(C)Cn1c(-c2ccc(F)cc2Cl)c(Cl)nc(-n2ccc(C)n2)c1=O (stereo not shown) [Compound 170, 5-Chloro-6-(2-chloro-4-fluorophenyl)-1-(2-methylbutyl)-3-(3-methyl-1H-pyrazol-1-yl)-2(1H)-pyrazinone]
Plasmopara viticola; 40 ppm (*)
  pest or weed control at 40 ppm: 0%
Phytophthora infestans
  pest or weed control at 40 ppm: 0%
Septoria tritici; 40 ppm (*)
  pest or weed control at 40 ppm: 100%
Fusarium graminearium; [4]
  pest or weed control at 40 ppm: 0%
[1]
  pest or weed control at 40 ppm: 100%
Botrytis cinerea
  pest or weed control at 40 ppm: 100%
Septoria nodorum; [5]
  pest or weed control at 40 ppm: 100%
[2]; [6]
  pest or weed control at 40 ppm: 99%
Pythium aphanidermatum
  pest or weed control at 40 ppm: 0%
Rhizoctonia oryzae; [7]
  pest or weed control at 40 ppm: 26%
[3]; [8]
  pest or weed control at 40 ppm: 100%

## CCC(C)Cn1c(-c2c(F)cccc2F)c(Cl)nc(C(N)=O)c1=O (stereo not shown) [Compound 298, 6-Chloro-5-(2,6-difluorophenyl)-3,4-dihydro-4-(2-methylbutyl)-3-oxopyrazinecarboxamide]
Plasmopara viticola; 200 ppm, 100 = 100% disease control, 0 = no control
  pest or weed control at 200 ppm: 85%
Phytophthora infestans
  pest or weed control at 200 ppm: 100%
Septoria tritici; [9]
  pest or weed control at 200 ppm: 100%
Fusarium graminearium; [9]
  pest or weed control at 200 ppm: 96%
[1]
  pest or weed control at 200 ppm: 100%
Botrytis cinerea
  pest or weed control at 200 ppm: 99%
Septoria nodorum; [9]
  pest or weed control at 200 ppm: 99%
[2]; [9]
  pest or weed control at 200 ppm: 89%
Pythium aphanidermatum
  pest or weed control at 200 ppm: 88%
Rhizoctonia oryzae; [9]
  pest or weed control at 200 ppm: 78%
[3]; [9]
  pest or weed control at 200 ppm: 66%

## O=c1c(-n2cccn2)nc(Cl)c(-c2c(F)cc(F)cc2F)n1-c1cccc(F)c1 [Compound 324, 5-Chloro-1-(3-fluorophenyl)-3-(1H-pyrazol-1-yl)-6-(2,4,6-trifluorophenyl)-2(1H)-pyrazinone]
Plasmopara viticola; [10]
  pest or weed control at 40 ppm: 0%
Phytophthora infestans
  pest or weed control at 40 ppm: 0%
Septoria tritici; [10]
  pest or weed control at 40 ppm: 100%
Fusarium graminearium; read-out: Test I disease control rating, 40 ppm (marked *), 100 = 100% disease control, 0 = no control
  pest or weed control at 40 ppm: 49%
[1]
  pest or weed control at 40 ppm: 100%
Botrytis cinerea
  pest or weed control at 40 ppm: 99%
Septoria nodorum; read-out: Test H disease control rating, 40 ppm (marked *), 100 = 100% disease control, 0 = no control
  pest or weed control at 40 ppm: 100%
[2]; read-out: Test L disease control rating, 40 ppm (marked *), 100 = 100% disease control, 0 = no control
  pest or weed control at 40 ppm: 100%
Pythium aphanidermatum
  pest or weed control at 40 ppm: 0%
Rhizoctonia oryzae; read-out: Test G disease control rating, 40 ppm (marked *), 100 = 100% disease control, 0 = no control
  pest or weed control at 40 ppm: 97%
[3]; read-out: Test B disease control rating, 40 ppm (marked *), 100 = 100% disease control, 0 = no control
  pest or weed control at 40 ppm: 99%

## CCC(C)c1c(Cl)nc(-n2cccn2)c(=O)n1CC(C)C (stereo not shown) [Compound 424, 5-Chloro-6-(1-methylpropyl)-1-(2-methylpropyl)-3-(1H-pyrazol-1-yl)-2(1H)-pyrazinone]
Plasmopara viticola; 200 ppm, 100 = 100% disease control, 0 = no control relative to controls
  pest or weed control at 200 ppm: 0%
Phytophthora infestans
  pest or weed control at 200 ppm: 0%
Septoria tritici; [10]
  pest or weed control at 40 ppm: 37%
Fusarium graminearium; [11]
  pest or weed control at 200 ppm: 0%
[1]
  pest or weed control at 200 ppm: 100%
Botrytis cinerea
  pest or weed control at 200 ppm: 96%
Septoria nodorum; [11]
  pest or weed control at 200 ppm: 0%
[2]; [11]
  pest or weed control at 200 ppm: 100%
Pythium aphanidermatum
  pest or weed control at 200 ppm: 0%
Rhizoctonia oryzae; [11]
  pest or weed control at 200 ppm: 99%
[3]; [11]
  pest or weed control at 200 ppm: 0%

## CC(C)(C)Cn1c(-c2c(F)cccc2F)c(Cl)nc(-n2cccn2)c1=O [compound 59]
Plasmopara viticola; 200 ppm
  Test D disease control rating: 0%
Phytophthora infestans
  Test F disease control rating: 0%
Septoria tritici; 40 ppm (*)
  Test J disease control rating: 100* %
Fusarium graminearium
  Test I disease control rating: 0%
[1]; 40 ppm (*)
  Test K disease control rating: 94* %
Botrytis cinerea; 40 ppm (*)
  Test E disease control rating: 100* %
Septoria nodorum; 40 ppm (*)
  Test H disease control rating: 73* %
[2]; 40 ppm (*)
  Test L disease control rating: 98* %
Pythium aphanidermatum
  Test A disease control rating: 0%
Rhizoctonia oryzae; 40 ppm (*)
  Test G disease control rating: 49* %

## O=c1c(-n2cccn2)nc(Cl)c(-c2c(F)cccc2F)n1-c1ccccc1OC(F)(F)F [compound 397]
Phytophthora infestans; [11]
  Test F disease control rating: 0%
Septoria tritici; [10]
  Test J disease control rating: 94* %
Fusarium graminearium; [11]
  Test I disease control rating: 0%
[1]; [10]
  Test K disease control rating: 80* %
Botrytis cinerea; [10]
  Test E disease control rating: 99* %
Septoria nodorum; [10]
  Test H disease control rating: 94* %
[2]; [10]
  Test L disease control rating: 0* %
Pythium aphanidermatum; [11]
  Test A disease control rating: 0%
Rhizoctonia oryzae; [10]
  Test G disease control rating: 0* %
[3]; [9]
  Test B disease control rating: 37* %

## O=c1c(-n2cccn2)nc(Cl)c(-c2c(F)cccc2F)n1-c1ccc(OC(F)(F)F)cc1 [compound 398]
Phytophthora infestans; [11]
  Test F disease control rating: 0%
Septoria tritici; [10]
  Test J disease control rating: 97* %
Fusarium graminearium; [11]
  Test I disease control rating: 0%
[1]; [10]
  Test K disease control rating: 97* %
Botrytis cinerea; [10]
  Test E disease control rating: 98* %
Septoria nodorum; [10]
  Test H disease control rating: 75* %
[2]; [10]
  Test L disease control rating: 78* %
Pythium aphanidermatum; [11]
  Test A disease control rating: 0%
Rhizoctonia oryzae; [10]
  Test G disease control rating: 24* %
[3]; [9]
  Test B disease control rating: 56* %

## O=c1c(-n2cccn2)nc(Cl)c(-c2c(F)cccc2F)n1-c1ccccc1C(F)(F)F [compound 399]
Phytophthora infestans; [11]
  Test F disease control rating: 0%
Septoria tritici; [10]
  Test J disease control rating: 100* %
Fusarium graminearium; [11]
  Test I disease control rating: 0%
[1]; [10]
  Test K disease control rating: 99* %
Botrytis cinerea; [10]
  Test E disease control rating: 97* %
Septoria nodorum; [10]
  Test H disease control rating: 90* %
[2]; [10]
  Test L disease control rating: 93* %
Pythium aphanidermatum; [11]
  Test A disease control rating: 0%
Rhizoctonia oryzae; [10]
  Test G disease control rating: 24* %
[3]; [9]
  Test B disease control rating: 88* %
